Values belong to the compound of their own block, whether it stands above or below them.
Experiments:
[1] = tested on: NF-κB DNA-binding activity in HUVECs; assay: NF-κB activation assay (EMSA) in nuclear extracts; type: cell-based, human; conditions: wortmannin 100 µM or H-89 20 µM, 30 mins, then TNF-α 10 ng/ml
Protocol: The endothelial cells were subjected to the indicated treatments followed by induction with TNF-α for indicated time points or 30 mins. The cells were then washed with PBS and dislodged using a cell scraper. The cytoplasmic and nuclear extracts were prepared as described previously, [46].
NF-κB activation in the nuclear extracts of human endothelial cells was assessed by electrophoretic mobility shift assay (EMSA) as described previously, [46]. For supershift experiment, nuclear extracts prepared from unstimulated and TNF-α-stimulated cells were incubated with antibodies against the p50 or p65 subunit of NF-κB or -α-tubulin for 15 mins at 37°C before the complex was analyzed by EMSA. Addition of equal amount of radioactive-labelled probe to all the samples was indicated by the similar intensity of the unincorporated probe observed towards the end of the gel.

[2] = tested on: Akt phosphorylation in HUVECs; assay: Akt phosphorylation western blot; type: cell-based, human; conditions: wortmannin 100 µM or H-89 20 µM, 30 mins, then TNF-α 10 ng/ml 30 mins
Protocol: Nuclear and cytoplasmic extracts were fractionated on SDS-PAGE with equal amount of proteins per well and transferred onto PVDF membranes and those membranes were incubated with appropriate primary antibodies and treated with HRP conjugated secondary antibodies followed by detection with DAB-H2O2 system. β-tubulin, α-actin and Lamin B1 were used as loading controls. Antibodies against NF-κBp65, phosphoNF-κBp65, IκBα, phosphoIκBα, IKK-β, Akt, phosphoAkt (Ser473) and phosphoAkt (Thr308) were used.

PKA = molecular target: T1, PKA (Homo sapiens, UniProt P17612); assay: PKA activity assay; type: cell-based
T1 construct: PKA was immunoprecipitated from the total cell lysates of unstimulated and TNF-α-stimulated endothelial cells; endogenous in cells; host or cells: HUVEC (treated with MPTAG, SQ 22536, H-89 ± TNF-α), anti-PKAα immunoprecipitate
From the text: PKA was immunoprecipitated from the total cell lysates of unstimulated and TNF-α-stimulated endothelial cells in presence and absence of treatment with agents indicated in Figure 7 using anti-PKAα (W-18) antibody. The immunoprecipates were subjected to kinase activity assay using a Bisamide Rhodamine 110 peptide substrate as per the instructions of the Profluor PKA assay kit (Promega, USA).

[3] = tested on: TNF-α-induced ICAM-1 expression on human endothelial cells; design: method as in PMID 21315792; conditions: dose-dependent; cited from earlier work
[4] = tested on: TNF-α-induced VCAM-1 expression on human endothelial cells; design: method as in PMID 21315792; conditions: dose-dependent; cited from earlier work
[5] = tested on: TNF-α-induced E-selectin expression on human endothelial cells; design: method as in PMID 21315792; conditions: dose-dependent; cited from earlier work
[6] = tested on: adhesion of neutrophils to the endothelium monolayer; design: method as in PMID 21315792; conditions: dose-dependent; cited from earlier work
PI-3K = PI-3K activity assay; type: cell-based, human; conditions: pretreatment, HUVECs
From the text: The catalytic domain of PI-3K was immunoprecipitated from the stimulated and unstimulated endothelial in presence and absence of various compound treatment using an anti-p85α (N-18) antibody. The immunoprecipated proteins were subjected to kinase activity assay using a PI substrate, diC8 followed by detection of the PI(3)P as per the instructions of the Class III PI-3kinase kit (Echelon, USA).

TNF-α-induced NF-κB activation (EMSA), kinase inhibitor alone [1]: enhanced
PKA activity (PKA; H-89 treatment, even in presence of MPTAG): inhibited
SMILES: O=S(=O)(NCCNC/C=C/c1ccc(Br)cc1)c1cccc2cnccc12 [H-89, reference compound]
TNF-α-induced Akt phosphorylation (Thr308), kinase inhibitor alone [2]: enhanced

SMILES: Cc1occc(=O)c1O[C@@H]1O[C@H](CO)[C@@H](O)[C@H](O)[C@H]1O [MPG, 2-methyl-pyran-4-one-3-O-β-D-glucopyranoside]
inhibition of TNF-α-induced ICAM-1 expression [3]: inhibited
inhibition of TNF-α-induced VCAM-1 expression [4]: inhibited
inhibition of TNF-α-induced E-selectin expression [5]: inhibited
inhibition of adhesion of neutrophils to the endothelium monolayer [6]: inhibited

PKA activity in unstimulated HUVECs (PKA; SQ 22536 treatment alone): moderately suppressed
SMILES: Nc1ncnc2c1ncn2C1CCCO1 (centres unmarked) [SQ 22536, reference compound]

SMILES: COC[C@H]1OC(=O)c2coc3c2[C@@]1(C)C1=C(C3=O)[C@@H]2CCC(=O)[C@@]2(C)C[C@H]1OC(C)=O [wortmannin, Wortmannin, reference compound]
TNF-α-induced NF-κB activation (EMSA), kinase inhibitor alone [1]: inhibited
TNF-α-induced Akt phosphorylation (Thr308), kinase inhibitor alone [2]: inhibited
TNF-α-induced PI-3K activity (PI-3K): abolished
